Results taken from publication PMC9271048, “Probing strigolactone perception mechanisms with rationally designed small-molecule agonists stimulating germination of root parasitic weeds” (Nature Communications, 2022).
Read-outs that look alike come from different tables or passages of the source.

Assays:
[1] = test system: ShHTLs (10 HTL proteins in S. hermonthica); assay: YLG-based competition assay on HTL proteins of S. hermonthica; format: biochemical, Striga hermonthica; details: Supplementary Fig. 27
Excerpt: (§1) In P. aegyptiaca, 5 KAI2s have been proposed as the SL receptors for the regulation of seed germination. […] The high sequence similarity may explain the consistency of these compounds in inducing germination in both S. hermonthica and P. aegyptiaca.
(§2) The excitation and emission wavelengths of YLG are 480 and 520 nm, respectively. We used a fluorescence spectrophotometer (CARY Eclipse) to detect the fluorescence intensity change of YLG during the enzymatic hydrolysis assay process. All the testing compounds and YLG were dissolved in DMSO and prepared as stock solutions just before use. […] The changes of fluorescence at 520 nm of each well were recorded every 1 min for 30 min. Using the reaction mixture without adding enzyme and tested compounds as the background control. After subtracting the background hydrolysis, a linear fluorescence increase in 8 min was used for further inspection. The IC50 values were determined via fitting relative inhibition percentages with the varying concentrations of compounds in Microsoft Excel.
(§3) Supplementary Fig. 27. Binding of compounds 4a, (R)- and (S)-4a, and 4g-i to the HTL proteins in S. hermonthica and KAI2 protein homologs in P. aegyptiaca. In the competitive inhibitory activity assay, YLG (3 µM) was used as the fluorogenic substrate. Error bar indicates SD (n = 3 biologically independent experiments).
(§4) (1 picture or pasted object on this page, not shown here)

ShHTL7 [2] = biological target: T1, ShHTL7 (Striga hermonthica, UniProt A0A0M3PNA2); assay: ShHTL7-hydrolysis reaction analysis (HPLC); format: biochemical; details: 10 μM compound, 30 °C, 30 min
Experimental: Compounds 4a, (R)- and (S)-4a, 4g-i, and rac-GR24 were dissolved in DMSO and prepared as stock solution ([…]) just before use. A 200 μL of the reaction solution consisting of PBS buffer (pH 7.3), 10 μM samples, and 10 μg recombinant ShHTL7 or its mutants was incubated at 30 °C for 30 min; with the reaction solution (200 μL) containing PBS buffer (pH 7.3) and 10 μM samples as the blank control[40],[52]. Subsequently, the reaction was terminated by adding 200 μL of methanol, and then the reaction mixture was shaken for 10 s and centrifuged at 5310 × g for 60 s. The supernatant was filtered and the remaining amount of samples was analyzed by HPLC. The relative percentages of hydrolysis were obtained by using the amount of compounds in blank control as reference.
Supplementary Fig. 11. Hydrolysis of 4a, (R)-4a, (S)-4a, 4g-i, and rac-GR24 by ShHTL7 at 30 °C for 30 min. The remaining amounts of compounds in recombinant ShHTL7 protein and buffer solution were determined by HPLC analysis. The relative percentages of hydrolysis were calculated by using the amount of compounds in the buffer as reference. The error bar indicates SD (n = 3 biologically independent experiments).
as §4

[3] = test system: PaKAI2s (5 KAI2 protein homologs in P. aegyptiaca); assay: YLG-based competition assay on KAI2 protein homologs of P. aegyptiaca; format: biochemical, Phelipanche aegyptiaca; details: Supplementary Fig. 27
Excerpt: as §1, §2, §3, §4

ShHTL7 [4] = biological target: T1, ShHTL7; assay: Competitive inhibition of ShHTL7 with Yoshimulactone Green (YLG) as substrate; format: biochemical
Experimental: Based on the structural feature of the lead compound 2h, we selected three regions to perform further modification (Supplementary Fig. 6), to try to further improve bioactivity. Insertion of a carbonyl group between the bicyclo[2.2.1]hept-5-en-2-yl group and the piperazine ring was detrimental to binding affinity (Supplementary Fig. 6, region A). Removal of an oxygen atom in region B was found unfavorable to binding affinity as well. Therefore, we focused on modifying the benzene ring (region C) for 2h. A series of compounds with different groups at region C was synthesized (Supplementary Scheme 1). […] As SPR just measures the binding ability, another independent assay by using Yoshimulactone Green (YLG) as the fluorescent substrate was performed to determine the half-maximal inhibitory concentration (IC50) of these compounds against ShHTL7[22].
as §2

T1 sequence (A0A0M3PNA2 entry or part of it): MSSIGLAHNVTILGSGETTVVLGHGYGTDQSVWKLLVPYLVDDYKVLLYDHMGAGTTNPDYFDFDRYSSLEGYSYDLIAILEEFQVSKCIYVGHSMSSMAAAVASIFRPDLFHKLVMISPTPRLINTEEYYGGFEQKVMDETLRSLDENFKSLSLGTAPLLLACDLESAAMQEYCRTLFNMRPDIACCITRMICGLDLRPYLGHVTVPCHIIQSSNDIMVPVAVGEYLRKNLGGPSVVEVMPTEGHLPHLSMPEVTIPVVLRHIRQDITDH

For `CC1=CC(OC(=O)N2CCN(C(=O)COc3ccc(Br)cc3C)CC2)OC1=O` (stereo not drawn) [4a], the IC50 ([1]; ShHTL2, YLG competition, read-out: IC50, replicate 1) was 56.1 µM, the IC50 ([1]; ShHTL2, YLG competition, read-out: IC50, replicate 2) was 49 µM and the IC50 ([1]; ShHTL2, YLG competition, read-out: IC50, replicate 3) was 62.1 µM. It also gave an IC50 ([1]; ShHTL2, average of 3 replicates, read-out: IC50, average) of 55.8 µM, an IC50 ([1]; ShHTL3, YLG competition, read-out: IC50, replicate 1) of 43.3 µM and an IC50 ([1]; ShHTL3, YLG competition, read-out: IC50, replicate 2) of 41.4 µM. The IC50 ([1]; ShHTL3, YLG competition, read-out: IC50, replicate 3) was 44.5 µM, the IC50 ([1]; ShHTL3, average of 3 replicates, read-out: IC50, average) was 43 µM and the IC50 ([1]; ShHTL4, YLG competition, read-out: IC50, replicate 1) was 6.23 µM. For the same molecule, the IC50 ([1]; ShHTL4, YLG competition, read-out: IC50, replicate 2) was 4.7 µM, the IC50 ([1]; ShHTL4, YLG competition, read-out: IC50, replicate 3) was 3.91 µM and the IC50 ([1]; ShHTL4, average of 3 replicates, read-out: IC50, average) was 4.95 µM. The IC50 ([1]; ShHTL5, YLG competition, read-out: IC50, replicate 1) was 18.6 µM, the IC50 ([1]; ShHTL5, YLG competition, read-out: IC50, replicate 2) was 15.2 µM and the IC50 ([1]; ShHTL5, YLG competition, read-out: IC50, replicate 3) was 13.3 µM. It also gave an IC50 ([1]; ShHTL5, average of 3 replicates, read-out: IC50, average) of 15.7 µM, an IC50 ([1]; ShHTL6, YLG competition, read-out: IC50, replicate 1) of 28.4 µM and an IC50 ([1]; ShHTL6, YLG competition, read-out: IC50, replicate 2) of 23.6 µM. It also gave an IC50 ([1]; ShHTL6, YLG competition, read-out: IC50, replicate 3) of 18.4 µM, an IC50 ([1]; ShHTL6, average of 3 replicates, read-out: IC50, average) of 23.5 µM and an IC50 ([1]; ShHTL8, YLG competition, read-out: IC50, replicate 1) of 14.7 µM. For the same molecule, the IC50 ([1]; ShHTL8, YLG competition, read-out: IC50, replicate 2) was 15.3 µM, the IC50 ([1]; ShHTL8, YLG competition, read-out: IC50, replicate 3) was 21.5 µM and the IC50 ([1]; ShHTL8, average of 3 replicates, read-out: IC50, average) was 17.2 µM. It also gave an IC50 ([1]; ShHTL9, YLG competition, read-out: IC50, replicate 1) of 20.4 µM, an IC50 ([1]; ShHTL9, YLG competition, read-out: IC50, replicate 2) of 21.8 µM and an IC50 ([1]; ShHTL9, YLG competition, read-out: IC50, replicate 3) of 26.6 µM. For the same molecule, the IC50 ([1]; ShHTL9, average of 3 replicates, read-out: IC50, average) was 22.9 µM, the IC50 ([1]; ShHTL10, YLG competition, read-out: IC50, replicate 1) was 31.1 µM and the IC50 ([1]; ShHTL10, YLG competition, read-out: IC50, replicate 2) was 39.7 µM. It also gave an IC50 ([1]; ShHTL10, YLG competition, read-out: IC50, replicate 3) of 31 µM, an IC50 ([1]; ShHTL10, average of 3 replicates, read-out: IC50, average) of 33.9 µM and an IC50 ([1]; ShHTL11, YLG competition, read-out: IC50, replicate 1) of 9.32 µM. The IC50 ([1]; ShHTL11, YLG competition, read-out: IC50, replicate 2) was 9.73 µM, the IC50 ([1]; ShHTL11, YLG competition, read-out: IC50, replicate 3) was 13.1 µM and the IC50 ([1]; ShHTL11, average of 3 replicates, read-out: IC50, average) was 10.7 µM. For the same molecule, the “hydrolysis by ShHTL7” value (ShHTL7 [2]) was 36.4%, the “relative percentage of hydrolysis by ShHTL7, source data average” value (ShHTL7 [2]; Supplementary Figs. 11, 20a, 24a) was 36.438% and the IC50 ([3]; KAI2C, YLG competition, read-out: IC50, replicate 1) was 10.9 µM. It also gave an IC50 ([3]; KAI2C, YLG competition, read-out: IC50, replicate 2) of 13.8 µM, an IC50 ([3]; KAI2C, YLG competition, read-out: IC50, replicate 3) of 21.5 µM and an IC50 ([3]; KAI2C, average of 3 replicates, read-out: IC50, average) of 15.4 µM. The IC50 ([3]; KAI2d1, YLG competition, read-out: IC50, replicate 1) was 33.3 µM, the IC50 ([3]; KAI2d1, YLG competition, read-out: IC50, replicate 2) was 33.3 µM and the IC50 ([3]; KAI2d1, YLG competition, read-out: IC50, replicate 3) was 24.8 µM. The IC50 ([3]; KAI2d1, average of 3 replicates, read-out: IC50, average) was 30.5 µM, the IC50 ([3]; KAI2d2, YLG competition, read-out: IC50, replicate 1) was 40.8 µM and the IC50 ([3]; KAI2d2, YLG competition, read-out: IC50, replicate 2) was 46.6 µM. The IC50 ([3]; KAI2d2, YLG competition, read-out: IC50, replicate 3) was 48.6 µM, the IC50 ([3]; KAI2d2, average of 3 replicates, read-out: IC50, average) was 45.3 µM and the IC50 ([3]; KAI2d3, YLG competition, read-out: IC50, replicate 1) was 30.6 µM. It also gave an IC50 ([3]; KAI2d3, YLG competition, read-out: IC50, replicate 2) of 26.4 µM, an IC50 ([3]; KAI2d3, YLG competition, read-out: IC50, replicate 3) of 27.7 µM and an IC50 ([3]; KAI2d3, average of 3 replicates, read-out: IC50, average) of 28.2 µM. For the same molecule, the IC50 ([3]; KAI2d4, YLG competition, read-out: IC50, replicate 1) was 17.4 µM, the IC50 ([3]; KAI2d4, YLG competition, read-out: IC50, replicate 2) was 17.7 µM and the IC50 ([3]; KAI2d4, YLG competition, read-out: IC50, replicate 3) was 26.3 µM. The IC50 ([3]; KAI2d4, average of 3 replicates, read-out: IC50, average) was 20.5 µM, the IC50 (ShHTL7 [4]; ShHTL7, YLG competition, Supplementary Fig. 27, read-out: IC50, replicate 1) was 0.953 µM and the IC50 (ShHTL7 [4]; ShHTL7, YLG competition, Supplementary Fig. 27, read-out: IC50, replicate 2) was 1.35 µM. The IC50 (ShHTL7 [4]; ShHTL7, YLG competition, Supplementary Fig. 27, read-out: IC50, replicate 3) was 1.32 µM, the IC50 (ShHTL7 [4]; YLG as substrate, text and Fig. 2, read-out: IC50, competitive ShHTL7 inhibition (YLG assay)) was 1.21 ± 0.22 µM and the IC50 (ShHTL7 [4]; wild-type ShHTL7, average of 3, source data of Fig. 2a,b, Supplementary Figs. 8a, 9a, 20b, read-out: IC50, competitive ShHTL7 inhibition (YLG), source data average) was 1.21 µM.
